From patent US10329299B2, “Heterocyclic compounds and uses thereof” (Infinity Pharmaceuticals, Inc., priority 2013, dated 2019)

Assays:
[1] = biological target: γ isoform of human Class I PI3 kinases (Homo sapiens (Human), UniProt P48736); test: PI3-Kinase Promega ADP-Glo Max assay, γ isoform; assay type: biochemical; settings: for PI3K δ/PI3K γ IC50 (selectivity): ratio of PI3K δ IC50 to PI3K γ IC50
Method: (§1) Promega ADP-Glo Max assay kit (Cat. No. V7002) was utilized to determine IC50 values for α, β, δ and γ isoforms of human Class I PI3 kinases (Millipore). […] Reactions were incubated at room temperature for 2 hours followed by addition of 25 uL of stop solution. After a 40-minute incubation at room temperature, 50 uL of Promega detection mix was added followed by incubation for 1 hour at room temperature. Plates were then read on Envision plate reader in lunimescence mode. Data was converted to % inhibition using the following equation below:
(§2) [formula] where S is the sample luminescence, Pos is a positive control without added PI3K, Neg is the negative control without added compound. Data was then plotted as % inhibition vs compound concentration.

PI3K-γ = PI3K-γ (Mus musculus (Mouse), UniProt Q9JHG7); test: PI3K-γ selective cellular assay: phospho-AKT in C5a stimulated RAW264.7 macrophages; assay type: cell-based; settings: ratio of RAJI p110 δ assay IC50 to Raw264.7 p110 γ assay IC50
PI3K-γ, sequence (Q9JHG7 whole entry): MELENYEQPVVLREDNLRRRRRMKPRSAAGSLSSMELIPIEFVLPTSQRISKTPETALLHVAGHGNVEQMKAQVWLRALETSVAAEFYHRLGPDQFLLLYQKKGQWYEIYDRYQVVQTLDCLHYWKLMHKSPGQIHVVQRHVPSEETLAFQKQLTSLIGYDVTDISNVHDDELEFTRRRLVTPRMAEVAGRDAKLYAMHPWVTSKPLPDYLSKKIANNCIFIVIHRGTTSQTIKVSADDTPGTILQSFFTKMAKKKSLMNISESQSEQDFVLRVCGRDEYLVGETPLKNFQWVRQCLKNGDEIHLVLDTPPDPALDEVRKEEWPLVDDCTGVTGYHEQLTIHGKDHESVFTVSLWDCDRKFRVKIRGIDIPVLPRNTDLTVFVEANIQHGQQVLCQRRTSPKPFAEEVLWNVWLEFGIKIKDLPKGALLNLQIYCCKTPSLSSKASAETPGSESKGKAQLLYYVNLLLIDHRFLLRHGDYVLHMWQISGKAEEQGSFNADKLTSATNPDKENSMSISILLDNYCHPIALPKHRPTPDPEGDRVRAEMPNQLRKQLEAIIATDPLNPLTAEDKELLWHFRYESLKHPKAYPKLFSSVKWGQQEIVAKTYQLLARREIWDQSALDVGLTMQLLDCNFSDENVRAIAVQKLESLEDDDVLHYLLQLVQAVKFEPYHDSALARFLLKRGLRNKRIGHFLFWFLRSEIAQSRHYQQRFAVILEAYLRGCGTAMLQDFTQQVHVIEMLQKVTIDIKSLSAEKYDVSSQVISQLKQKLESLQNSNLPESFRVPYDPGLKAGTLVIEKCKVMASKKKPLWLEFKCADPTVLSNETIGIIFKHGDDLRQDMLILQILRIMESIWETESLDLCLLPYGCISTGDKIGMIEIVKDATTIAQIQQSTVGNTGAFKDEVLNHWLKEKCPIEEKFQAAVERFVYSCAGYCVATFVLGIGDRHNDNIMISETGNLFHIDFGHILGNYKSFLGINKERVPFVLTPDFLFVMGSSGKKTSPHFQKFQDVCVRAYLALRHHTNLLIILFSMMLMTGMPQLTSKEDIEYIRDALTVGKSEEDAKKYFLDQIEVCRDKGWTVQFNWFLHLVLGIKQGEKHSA
From the text: Cells can be treated with test compounds prior to, simultaneously with, or subsequent to the stimulation by C5a.

PI3K/Akt/mTOR signaling = test: Kinase signaling in blood (phosflow); assay type: cell-based; settings: unfractionated splenocytes or peripheral blood mononuclear cells stimulated with anti-CD3
Method: PI3K/Akt/mTOR signaling is measured in blood cells using the phosflow method (Methods Enzymol. (2007) 434:131-54). This method is by nature a single cell assay so that cellular heterogeneity can be detected rather than population averages. This allows concurrent distinction of signaling states in different populations defined by other markers. Phosflow is also highly quantitative. To test the effects of one or more compounds provided herein, unfractionated splenocytes, or peripheral blood mononuclear cells are stimulated with anti-CD3 to initiate T-cell receptor signaling. The cells are then fixed and stained for surface markers and intracellular phosphoproteins. […]
Similarly, aliquots of whole blood are incubated for 15 minutes with vehicle (e.g., 0.1% DMSO) or kinase inhibitors at various concentrations, before addition of stimuli to crosslink the T cell receptor (TCR) (anti-CD3 with secondary antibody) or the B cell receptor (BCR) using anti-kappa light chain antibody (Fab′2 fragments). […] The level of phosphorylation of kinase substrates such as Akt and S6 are then measured by incubating the fixed cells with labeled antibodies specific to the phosphorylated isoforms of these proteins. The population of cells are then analyzed by flow cytometry.

[2] = biological target: δ isoform of human Class I PI3 kinases (Homo sapiens (Human), UniProt O00329); test: PI3-Kinase Promega ADP-Glo Max assay, δ isoform; assay type: biochemical; settings: read-out: PI3K δ IC50
δ isoform of human Class I PI3 kinases, sequence (O00329 whole entry, canonical isoform): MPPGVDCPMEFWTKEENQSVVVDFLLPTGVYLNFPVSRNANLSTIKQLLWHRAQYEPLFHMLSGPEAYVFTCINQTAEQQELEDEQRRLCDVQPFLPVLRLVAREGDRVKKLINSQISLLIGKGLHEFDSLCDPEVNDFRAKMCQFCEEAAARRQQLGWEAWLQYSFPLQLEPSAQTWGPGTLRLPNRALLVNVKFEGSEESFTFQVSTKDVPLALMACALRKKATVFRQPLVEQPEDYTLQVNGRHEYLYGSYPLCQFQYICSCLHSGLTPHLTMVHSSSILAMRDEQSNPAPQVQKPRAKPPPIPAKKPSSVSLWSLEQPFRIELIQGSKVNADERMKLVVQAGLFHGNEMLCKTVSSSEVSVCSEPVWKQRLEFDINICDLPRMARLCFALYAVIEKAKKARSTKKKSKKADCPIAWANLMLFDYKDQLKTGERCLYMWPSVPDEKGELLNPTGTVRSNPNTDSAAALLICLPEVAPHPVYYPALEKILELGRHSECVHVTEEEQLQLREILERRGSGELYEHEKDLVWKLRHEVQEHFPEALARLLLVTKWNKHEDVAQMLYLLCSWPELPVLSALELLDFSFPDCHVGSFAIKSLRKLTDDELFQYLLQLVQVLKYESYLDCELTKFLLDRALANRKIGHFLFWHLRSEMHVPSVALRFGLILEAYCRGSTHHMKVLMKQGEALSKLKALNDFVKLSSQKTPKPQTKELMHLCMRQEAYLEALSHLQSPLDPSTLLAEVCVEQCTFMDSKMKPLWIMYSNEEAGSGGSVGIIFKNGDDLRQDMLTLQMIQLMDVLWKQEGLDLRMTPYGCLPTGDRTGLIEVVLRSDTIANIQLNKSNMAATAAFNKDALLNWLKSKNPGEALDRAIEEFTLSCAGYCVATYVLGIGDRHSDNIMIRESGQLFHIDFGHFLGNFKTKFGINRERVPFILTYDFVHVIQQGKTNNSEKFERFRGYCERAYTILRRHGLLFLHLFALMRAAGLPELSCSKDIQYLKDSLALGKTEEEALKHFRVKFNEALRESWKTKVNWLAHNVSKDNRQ
δ isoform of human Class I PI3 kinases, sequence (P27986 whole entry partner, canonical isoform): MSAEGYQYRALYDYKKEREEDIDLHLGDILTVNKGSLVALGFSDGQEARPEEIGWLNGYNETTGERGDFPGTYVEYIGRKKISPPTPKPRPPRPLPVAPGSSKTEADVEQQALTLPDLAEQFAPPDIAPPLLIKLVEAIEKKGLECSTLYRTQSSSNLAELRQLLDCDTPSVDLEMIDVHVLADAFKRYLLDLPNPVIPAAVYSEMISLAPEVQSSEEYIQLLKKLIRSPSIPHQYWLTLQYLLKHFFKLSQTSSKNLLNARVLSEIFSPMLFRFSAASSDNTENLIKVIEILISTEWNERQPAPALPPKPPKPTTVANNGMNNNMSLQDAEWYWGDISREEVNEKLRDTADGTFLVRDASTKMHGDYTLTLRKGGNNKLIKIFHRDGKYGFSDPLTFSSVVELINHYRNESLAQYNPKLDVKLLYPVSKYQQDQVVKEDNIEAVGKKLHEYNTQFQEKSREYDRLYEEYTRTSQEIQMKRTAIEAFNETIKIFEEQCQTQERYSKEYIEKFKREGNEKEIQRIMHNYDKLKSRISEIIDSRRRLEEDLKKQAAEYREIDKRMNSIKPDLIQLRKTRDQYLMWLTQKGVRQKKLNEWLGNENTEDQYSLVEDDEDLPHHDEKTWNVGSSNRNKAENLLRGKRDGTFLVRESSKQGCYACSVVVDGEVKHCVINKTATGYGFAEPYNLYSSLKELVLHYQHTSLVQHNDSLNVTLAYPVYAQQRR
Method: as §1, §2

[3] = biological target: β isoform of human Class I PI3 kinases (Homo sapiens (Human), UniProt P42338); test: PI3-Kinase Promega ADP-Glo Max assay, β isoform; assay type: biochemical; settings: read-out: PI3K β IC50
Method: as §1, §2

[4] = biological target: α isoform of human Class I PI3 kinases (Homo sapiens (Human), UniProt P42336); test: PI3-Kinase Promega ADP-Glo Max assay, α isoform; assay type: biochemical; settings: read-out: PI3K α IC50
α isoform of human Class I PI3 kinases, sequence (P42336 whole entry, canonical isoform): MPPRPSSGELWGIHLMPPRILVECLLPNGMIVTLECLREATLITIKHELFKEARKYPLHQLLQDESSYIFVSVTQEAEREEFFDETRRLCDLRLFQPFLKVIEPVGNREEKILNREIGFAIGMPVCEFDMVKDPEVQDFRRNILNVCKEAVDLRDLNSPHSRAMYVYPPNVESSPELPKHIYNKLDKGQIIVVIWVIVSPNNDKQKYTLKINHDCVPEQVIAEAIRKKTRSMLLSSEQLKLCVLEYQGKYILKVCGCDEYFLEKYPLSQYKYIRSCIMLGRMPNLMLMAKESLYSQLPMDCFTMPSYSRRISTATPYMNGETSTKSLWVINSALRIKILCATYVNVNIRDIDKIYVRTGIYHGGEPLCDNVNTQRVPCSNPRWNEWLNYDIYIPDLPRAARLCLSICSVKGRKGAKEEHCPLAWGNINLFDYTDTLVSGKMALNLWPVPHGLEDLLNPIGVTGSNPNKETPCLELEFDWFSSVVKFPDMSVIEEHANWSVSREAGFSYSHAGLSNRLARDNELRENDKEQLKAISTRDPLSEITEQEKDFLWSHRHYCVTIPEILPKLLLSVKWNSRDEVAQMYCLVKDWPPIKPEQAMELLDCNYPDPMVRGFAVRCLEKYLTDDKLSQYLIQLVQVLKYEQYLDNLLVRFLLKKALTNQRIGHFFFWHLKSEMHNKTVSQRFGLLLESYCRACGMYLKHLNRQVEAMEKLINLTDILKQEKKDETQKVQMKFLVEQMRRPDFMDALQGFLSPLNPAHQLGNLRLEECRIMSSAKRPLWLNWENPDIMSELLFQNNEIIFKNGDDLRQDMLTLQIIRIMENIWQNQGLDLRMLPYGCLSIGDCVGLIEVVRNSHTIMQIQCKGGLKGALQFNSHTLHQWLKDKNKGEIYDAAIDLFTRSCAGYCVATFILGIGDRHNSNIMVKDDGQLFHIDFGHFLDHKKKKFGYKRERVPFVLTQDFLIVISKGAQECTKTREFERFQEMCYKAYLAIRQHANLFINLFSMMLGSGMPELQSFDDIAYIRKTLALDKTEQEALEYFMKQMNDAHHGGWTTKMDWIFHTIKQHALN
α isoform of human Class I PI3 kinases, sequence (P27986 whole entry partner, canonical isoform): as the sequence (P27986 whole entry partner, canonical isoform) above
Method: as §1, §2

γ isoform of human Class I PI3 kinases, sequence (P48736 whole entry, canonical isoform): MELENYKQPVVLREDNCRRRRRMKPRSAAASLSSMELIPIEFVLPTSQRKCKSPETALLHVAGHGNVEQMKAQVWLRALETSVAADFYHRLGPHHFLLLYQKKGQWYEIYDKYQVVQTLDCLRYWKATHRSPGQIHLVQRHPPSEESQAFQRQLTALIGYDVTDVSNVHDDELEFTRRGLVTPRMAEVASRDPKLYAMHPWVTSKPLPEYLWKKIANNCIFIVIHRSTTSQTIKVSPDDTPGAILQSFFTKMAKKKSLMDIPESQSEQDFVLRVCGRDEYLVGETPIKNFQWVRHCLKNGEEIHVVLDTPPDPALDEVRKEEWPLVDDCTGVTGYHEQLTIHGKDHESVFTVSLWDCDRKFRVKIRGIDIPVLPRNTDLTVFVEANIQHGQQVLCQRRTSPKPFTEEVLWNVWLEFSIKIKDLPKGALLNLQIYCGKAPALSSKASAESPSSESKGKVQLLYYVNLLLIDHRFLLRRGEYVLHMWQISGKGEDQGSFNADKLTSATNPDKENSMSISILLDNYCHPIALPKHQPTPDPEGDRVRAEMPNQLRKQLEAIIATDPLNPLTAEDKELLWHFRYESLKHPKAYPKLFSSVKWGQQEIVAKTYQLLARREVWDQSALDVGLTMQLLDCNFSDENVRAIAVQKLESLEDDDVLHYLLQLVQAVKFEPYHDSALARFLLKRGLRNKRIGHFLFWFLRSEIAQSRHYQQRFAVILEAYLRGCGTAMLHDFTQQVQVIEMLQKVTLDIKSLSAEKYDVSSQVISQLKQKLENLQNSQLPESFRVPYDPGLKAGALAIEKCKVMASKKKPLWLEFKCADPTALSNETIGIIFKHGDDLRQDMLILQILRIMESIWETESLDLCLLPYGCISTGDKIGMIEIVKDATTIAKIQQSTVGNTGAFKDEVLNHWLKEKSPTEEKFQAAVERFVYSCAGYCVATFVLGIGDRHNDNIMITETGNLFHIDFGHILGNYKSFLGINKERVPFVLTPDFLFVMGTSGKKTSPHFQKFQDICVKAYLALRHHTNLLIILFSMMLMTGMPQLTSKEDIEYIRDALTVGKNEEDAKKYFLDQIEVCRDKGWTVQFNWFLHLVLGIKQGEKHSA

SMILES | PI3K δ/PI3K γ IC50 (selectivity) [1] | RAJI δ/Raw264.7 γ IC50 (selectivity) (PI3K-γ) | further results
C/C=C/c1cccc2cc([C@H](C)NC(=O)c3c(N)nn4cccnc34)n(-c3ccccc3)c(=O)c12 [Compound 70] | X (X = 10 to <50) |  | 
C[C@H](NC(=O)c1c(N)nn2cccnc12)c1cc2cccc(C#CC3CNC3)c2c(=O)n1-c1ccccc1 [Compound 74] | W (W = >1 to <10) | W (W = >1 to <10) | 
CO[C@H]1C[C@@H]2CC[C@@H](C)[C@@](O)(O2)C(=O)C(=O)N2CCCC[C@H]2C(=O)O[C@H]([C@H](C)C[C@@H]2CC[C@@H](O)[C@H](OC)C2)CC(=O)[C@H](C)/C=C(\C)[C@@H](O)[C@@H](OC)C(=O)[C@H](C)C[C@H](C)/C=C/C=C/C=C/1C [rapamycin] |  |  | anti-CD3 mediated phosphorylation of Akt-S473 (PI3K/Akt/mTOR signaling): enhances; anti-CD3 mediated phosphorylation of S6 (PI3K/Akt/mTOR signaling): inhibits
C[C@H](NC(=O)c1c(N)nn2cccnc12)c1cc2cccc(C#CC=O)c2c(=O)n1-c1ccccc1 [Compound 36] | X (X = 10 to <50) | W (W = >1 to <10) | 
C[C@H](NC(=O)c1c(N)nn2cccnc12)c1cc2cccc(C#CC3CCN(S(C)(=O)=O)CC3)c2c(=O)n1-c1ccccc1 [Compound 83] | X (X = 10 to <50) | X (X = 10 to <50) | 
C[C@H](NC(=O)c1c(N)nn2cccnc12)c1cc2cccc(NC(=O)c3cnn(C)c3)c2c(=O)n1-c1ccccc1 [Compound 90] | W (W = >1 to <10) | X (X = 10 to <50) | 
Cc1c(C#Cc2cccc3nc([C@H](C)NC(=O)c4c(N)nn5cccnc45)n(-c4ccccc4)c(=O)c23)cnn1C [Compound 88, (S)-2-amino-N-(1-(5-((1,5-dimethyl-1H-pyrazol-4-yl)ethynyl)-4-oxo-3-phenyl-3,4-dihydroquinazolin-2-yl)ethyl)pyrazolo[1,5-a]pyrimidine-3-carboxamide] | X (X = 10 to <50) | Y (Y = 50 to <850) | 
C[C@H](NC(=O)c1c(N)nn2cccnc12)c1cc2cccc(C#Cc3ccn[nH]3)c2c(=O)n1-c1ccccc1 [Compound 43] | Y (Y = 50 to <850) | X (X = 10 to <50) | IC50 [2]: 5 to 10 µM; IC50 [3]: 5 to 10 µM; IC50 [4]: 5 to 10 µM; IC50 ([1]; read-out: PI3K γ IC50): 0.1 to 0.5 µM
C[C@H](NC(=O)c1c(N)nn2cccnc12)c1cc2cccc(C#Cc3cn[nH]c3)c2c(=O)n1-c1ccccc1 [Compound 80] | Y (Y = 50 to <850) | Y (Y = 50 to <850) | 
CC(=O)N1CCC(C#Cc2cccc3cc([C@H](C)NC(=O)c4c(N)nn5cccnc45)n(-c4ccccc4)c(=O)c23)CC1 [Compound 82] | X (X = 10 to <50) | X (X = 10 to <50) | 
